From US4564619A, “Carbostyril derivative” (Otsuka Pharmaceutical Co., Ltd., priority 1982, dated 1986)

Experiments:
[1] = system: collagen-induced aggregation in rabbit platelets; assay: Inhibition of collagen-induced platelet aggregation in rabbit platelet rich plasma; type: cell-based; conditions: Oryctolagus cuniculus, read-out: Inhibition rate of collagen-induced aggregation; for inhibition at 100 µM (stock): Concentration of the test compound solution 10^-4 mole; for inhibition at 10 µM (stock): Concentration of the test compound solution 10^-5 mole
How it was run: (§1)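 Citrated rabbit PRP adjusted to 600,000 platelets/μl with PPP, preincubated with test compound 1 min at 37° C, then challenged with ADP (solution prepared at 7.5×10^-5 M) or collagen (solution at 200 μg/ml). Aggregation followed by light transmittance; % inhibition relative to control aggregation rate.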

[2] = system: ADP-induced aggregation in rabbit platelets; assay: Inhibition of ADP-induced platelet aggregation in rabbit platelet rich plasma; type: cell-based; conditions: Oryctolagus cuniculus, read-out: Inhibition rate of ADP-induced aggregation; for inhibition at 100 µM (stock): Concentration of the test compound solution 10^-4 mole; for inhibition at 10 µM (stock): Concentration of the test compound solution 10^-5 mole
How it was run: as §1

coronary artery = assay: Increased amount of the blood flow in coronary artery, intravenous administration, anesthetized dog; type: in vivo
Description: The change of blood flow in coronary artery and the change of blood pressure were measured by a method according to Yakura et al., [Japan Journal of Pharmacology, Vol. 57, pages 380-391 (1961)] and according to Taira, et al. [Clin. Exp. Pharmacol. Physiol., Vol. 6, pages 301-316, (1976)].
An adult bastard dog of either sex weighing 8-13 kg was anesthetized with sodium pentobarbital at the rate of 30 mg/kg by intraveneous administration, then the dog was fixed in supination and was theracotomized under a condition of forced breathing. After another intraveneous administration of sodium heparin at the rate of 500 U/kg, 100 U/kg per hour, the dog was subjected to the following experiments.
(2) Intraveneous administration
Morawitz's cannula was cannulated to the coronary sinus venosus through the auricula dextra cordis, and the blood in vein was circulated to the right carotid. The blood flow was measured by an electromagnetic blood flow meter equipped with a blood flow observation probe in the extracorporeal circulation path of the vein. The systolic force was measured by a systolometer (pick-up) placed at the left ventricle of heart, the blood pressure was measured from the femoral artery, and the heart rate was measured from the pulse. A compound to be tested was administered through the cannula being cannulated in femoral vein. The increased amount of the blood flow in coronary artery after the administration of the test compound is shown in Table 4, also the change of blood pressure is shown in Table 5.

[3] = Change of blood pressure, intravenous administration, anesthetized dog; type: in vivo; set-up: unit not given here; conditions: femoral artery
How it was run: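 Pentobarbital-anesthetized (30 mg/kg i.v.), heparinized, thoracotomized dogs of either sex, 8-13 kg, under forced breathing; compound given via femoral vein. Coronary sinus outflow measured by electromagnetic flowmeter in an extracorporeal venous circuit to the carotid; blood pressure recorded from femoral artery.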

| SMILES | inhibition at 100 µM (stock) [1] | inhibition at 10 µM (stock) [1] | inhibition at 100 µM (stock) [2] | inhibition at 10 µM (stock) [2] | Increased amount of the blood flow in coronary artery (coronary artery; 100 micrograms/kg) | Increased amount of the blood flow in coronary artery (coronary artery; 300 micrograms/kg) | Increased amount of the blood flow in coronary artery (coronary artery; 1000 micrograms/kg) | Change of blood pressure ([3]; 10 micrograms/kg) | Change of blood pressure ([3]; 30 micrograms/kg) | Change of blood pressure ([3]; 100 micrograms/kg) | Change of blood pressure ([3]; 300 micrograms/kg) | Increased amount of the blood flow in coronary artery (coronary artery; 10 micrograms/kg) | Increased amount of the blood flow in coronary artery (coronary artery; 30 micrograms/kg) | Change of blood pressure ([3]; 3 micrograms/kg) | Increased amount of the blood flow in coronary artery (coronary artery; 3 micrograms/kg) |
| --- | --- | --- | --- | --- | --- | --- | --- | --- | --- | --- | --- | --- | --- | --- | --- |
| COC(=O)C1=C(C)NC(C)=C(C(=O)OCCN(C(=O)CCCOc2ccc3c(c2)CCC(=O)N3)C2CCCCC2)C1c1ccccc1[N+](=O)[O-] (centres unmarked) [Compound 32, N--{2-[1,4-Dihydro-2,6-dimethyl-5-methoxycarbonyl-4-(2-nitrophenyl)pyridin-3-carboxy]ethyl}-N--cyclohexyl-4-(3,4-dihydro-6-carbostyriloxy)-butyramide] | 100% | 34% | 98% | 25% | 16 mL/min | 55 mL/min | 97 mL/min | -1 | -6 | -8 | -19 |  |  |  |  |
| COC(=O)C1=C(C)NC(C)=C(C(=O)OCCCOc2ccc3c(c2)NC(=O)CC3)C1c1cccc([N+](=O)[O-])c1 (centres unmarked) [Compound 6, 7-{3-[2,6-Dimethyl-5-methoxycarbonyl-4-(3-nitrophenyl)-1,4-dihydropyridin-3-carboxy]-propoxy}-3,4-dihydrocarbostyril] | 19% | 3% | 15% | 6% | 58 mL/min | 64 mL/min |  | -5 | -15 | -32 | -44 | 3 mL/min | 25 mL/min | -3 |  |
| COC(=O)C1=C(C)NC(C)=C(C(=O)OCCN(C(=O)CCCOc2ccc3[nH]c(=O)ccc3c2)C2CCCCC2)C1c1ccccc1 (centres unmarked) [Compound 35, N--[2-(1,4-Dihydro-2,6-dimethyl-5-methoxycarbonyl-4-phenylpyridin-3-carboxy)ethyl]-N--cyclohexyl-4-(6-carbostyriloxy)butyramide] | 100% | 100% | 100% | 89% | 5 mL/min | 17 mL/min | 47 mL/min | -4 | -6 | -9 | -26 |  |  |  |  |
| C=CCOc1ccc(OCCCOC(=O)C2=C(C)NC(C)=C(C(=O)OC)C2c2cccc([N+](=O)[O-])c2)c2c1NC(=O)CC2 (centres unmarked) [Compound 1, 5-{3-[2,6-Dimethyl-5-methoxycarbonyl-4-(3-nitrophenyl)-1,4-dihydropyridin-3-carboxy]-propoxy}-8-propenyloxy-3,4-dihydrocarbostyril] | 51% | 15% | 19% | 1% | 62 mL/min | 42 mL/min |  | -17 | -36 | -42 | -46 | 34 mL/min | 63 mL/min | -6 | 4 mL/min |
| COC(=O)C1=C(C)NC(C)=C(C(=O)OCCOc2ccc3[nH]c(=O)ccc3c2)C1c1cccc([N+](=O)[O-])c1 (centres unmarked) [Compound 10, 6-{2-[2,6-Dimethyl-5-methoxycarbonyl-4-(3-nitrophenyl)-1,4-dihydropyridin-3-carboxy]-ethoxy}carbostyril] | 100% | 50% | 100% | 27% | 23 mL/min | 43 mL/min |  | -5 | -9 | -13 | -34 | 2 mL/min | 5 mL/min |  |  |
| COC(=O)C1=C(C)NC(C)=C(C(=O)OCCOc2cccc3c2CCC(=O)N3)C1c1cccc([N+](=O)[O-])c1 (centres unmarked) [Compound 2, 5-{2-[2,6-Dimethyl-5-methoxycarbonyl-4-(3-nitrophenyl)-1,4-dihydropyridin-3-carboxy]-ethoxy}-3,4-dihydrocarbostyril] | 79% | 17% | 28% | 1% | 38 mL/min | 52 mL/min |  | -2 | -6 | -21 | -34 | 3 mL/min | 13 mL/min |  |  |
| COC(=O)C1=C(C)NC(C)=C(C(=O)OCCCOc2cccc3c2CCC(=O)N3)C1c1cccc([N+](=O)[O-])c1 (centres unmarked) [Compound 4, 5-{3-[2,6-Dimethyl-5-methoxycarbonyl-4-(3-nitrophenyl)-1,4-dihydropyridin-3-carboxy]-propoxy}-3,4-dihydrocarbostyril] | 23% | 11% | 16% | 4% | 62 mL/min | 90 mL/min |  | -15 | -25 | -34 | -51 | 8 mL/min | 22 mL/min | -5 | 3 mL/min |
| COC(=O)C1=C(C)NC(C)=C(C(=O)OCCN(C(=O)CCCOc2ccc3[nH]c(=O)ccc3c2)C2CCCCC2)C1c1cccc([N+](=O)[O-])c1 (centres unmarked) [Compound 31, N--{2-[1,4-Dihydro-2,6-dimethyl-5-methoxycarbonyl-4-(3-nitrophenyl)pyridin-3-carboxy]ethyl}-N--cyclohexyl-4-(6-carbostyriloxy)butyramide] | 100% | 100% | 100% | 84% | 6 mL/min | 32 mL/min | 61 mL/min | -1 | -4 | -8 | -23 |  |  |  |  |
